Test results from patent US12545677B2, “Compounds useful as factor XIa inhibitors” (JANSSEN PHARMACEUTICA NV, priority 2020, dated 2026).

Columns and labels:
[1] = tested on: TK6 human lymphoblastoid cell line; assay: In vitro micronucleus assay; assay type: cell-based; details: TK6 cells, 3 h +S9 and continuous -S9; score of 1 = clearly negative
Protocol: Biological Example 8: In Vitro Micronucleus Assay
The in vitro micronucleus test (MNT) is a genotoxicity test for the detection of micronuclei (MN) in the cytoplasm of interphase cells. Micronuclei may originate from acentric chromosome fragments (i.e., lacking a centromere) or whole chromosomes that are unable to migrate to the poles during the anaphase stage of cell division. Compounds and/or their metabolites are evaluated for their ability to induce chromosome/genome aberrations in a TK6 human lymphoblastoid cell line, in the absence and in the presence of a mammalian metabolic activation system. Human TK6 cells are often used in the in vitro micronucleus test and it is noteworthy that these cells have a wild-type p53 status, a feature that some groups speculate may help to reduce the frequency of false positive results. The assessment is done by means of manual and/or semi-automated microscopical analysis.
The in vitro micronucleus test using TK6 cells is an accepted regulatory genotoxicity assay. […]
Assay principle: Cell cultures were exposed to the test compound both with and without an exogenous source of metabolic activation. […] Harvested and stained interphase cells were analyzed for the presence of micronuclei. […]

[2] = target: human plasma kallikrein (Homo sapiens, UniProt P03952); assay: Kallikrein inhibition assay utilizing quenched AMC peptide substrate; assay type: biochemical; details: read-out: Plasma kallikrein (PK) IC50
Protocol: Biological Example 2: Kallikrein Inhibition Assay
Utilizing Quenched AMC Peptide Substrate
A fluorescence intensity-based assay was used to monitor inhibition of human plasma kallikrein. The peptide substrate, Z-Gly-Pro-Arg-AMC (Purchased from Bachem; Catalog #1-1150) was chosen based on its relatively low KM for kallikrein which enables running the assay at lower substrate concentrations to control background fluorescence. The kinetic parameters for this substrate were determined by fitting titration data to the Michaelis-Menten equation yielding a KM=40 μM, kcat=0.76 s^−1, and kcat/KM=18932 M^−1s^−1.
Kallikrein FLINT assay was used with the following Z-Gly-Pro-Arg-AMC assay buffer: 50 mM Tris, pH 7.5, 100 mM NaCl, 5 mM CaCl2, 0.1 mg/mL BSA, 0.03% CHAPS. Assay buffer was prepared by mixing all ingredients fresh. 2× Z-Gly-Pro-Arg-AMC peptide substrate was prepared by diluting 10 mM stock into 1× assay buffer for a 100 μM working concentration (50 μM final concentration). The 2× kallikrein stock solution was prepared by diluting 14.76 μM stock in 1× assay buffer for a 4 nM working stock solution (2 nM final concentration).
Test compound(s) were run in an 11-point, 3-fold serial dilution with a final top compound concentration of 1 μM. Final DMSO in assay: 2% DMSO. 2 nM kallikrein and test compound were pre-incubated for 30 minutes and 50 μM substrate was then added to initiate the reaction. The assay was linear using 2 nM kallikrein greater than 30 minutes. More specifically, the assay was run as follows: • 100 nL of 1 mM test compound was dispensed into a black 384-well non-binding Greiner BioOne 784900 plate for 10 μM final concentration with 1% DMSO final concentration; • 5 μL of 1× assay buffer was dispensed to columns 24 (low control) and 5 μL 2× human kallikrein enzyme solution was dispensed to columns 1-23 (column 23 high control); • the plate was centrifuged with a cover plate at 500 rpm for 1 min • the plate was pre-incubated for 30 minutes at room temperature with plate covered; • 5 μL of 2× Z-Gly-Pro-Arg-AMC peptide substrate was dispensed into the entire plate, columns 1-24; • the plate was centrifuged with a “cover” plate at 500 rpm for 1 min; • the plate was read kinetically monitoring fluorescence intensity on the BMG PHERAStar at room temperature, using fluorescence module F1 340 mm/440 mm.
Percent inhibition (IC50) curves were generated per compound tested, and data was analyzed using a 4-parameter logistic fit using GeneData Screener. […]

human plasma kallikrein, sequence (P03952 391-638 limits assumed): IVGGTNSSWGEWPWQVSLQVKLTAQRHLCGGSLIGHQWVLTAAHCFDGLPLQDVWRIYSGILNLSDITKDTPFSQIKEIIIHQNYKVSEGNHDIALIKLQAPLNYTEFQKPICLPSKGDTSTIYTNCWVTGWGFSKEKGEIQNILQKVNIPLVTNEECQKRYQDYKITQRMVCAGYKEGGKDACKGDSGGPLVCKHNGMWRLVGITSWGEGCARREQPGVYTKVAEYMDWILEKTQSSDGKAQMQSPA
human plasma kallikrein, sequence (P03952 20-390 partner limits assumed): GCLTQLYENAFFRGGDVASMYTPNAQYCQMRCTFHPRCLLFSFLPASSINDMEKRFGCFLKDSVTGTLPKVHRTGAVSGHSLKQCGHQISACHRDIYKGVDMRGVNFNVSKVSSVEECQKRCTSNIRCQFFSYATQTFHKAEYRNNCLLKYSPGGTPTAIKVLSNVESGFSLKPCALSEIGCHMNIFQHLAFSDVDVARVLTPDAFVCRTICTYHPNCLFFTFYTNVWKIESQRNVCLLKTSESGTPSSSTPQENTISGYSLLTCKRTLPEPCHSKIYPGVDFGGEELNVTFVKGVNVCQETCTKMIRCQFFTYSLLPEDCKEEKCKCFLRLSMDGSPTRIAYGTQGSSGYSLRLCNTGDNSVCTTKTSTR

IC50 [2] | Compound | in vitro MNT assay result [1]
– | O=C1C=C(c2c(-n3cnnn3)ccc(Cl)c2F)C[C@H]2CC[C@@H](c3ncc(-c4ccnc(CO)c4F)[nH]3)N12 [Compound of formula (I-A), (3S,8aR)-7-(3-Chloro-2-fluoro-6-(1H-tetrazol-1-yl)phenyl)-3-(5-(3-fluoro-2-(hydroxymethyl)pyridin-4-yl)-1H-imidazol-2-yl)-2,3,8,8a-tetrahydroindolizin-5(1H)-one] | negative
11 nM | O=C(O)c1nccc(-c2cnc([C@@H]3CC[C@@H]4CC(c5c(-n6cnnn6)ccc(Cl)c5F)=CC(=O)N43)[nH]2)c1F [Compound of formula (II-A), 4-(2-((3S,8aR)-7-(3-chloro-2-fluoro-6-(1H-tetrazol-1-yl)phenyl)-5-oxo-1,2,3,5,8,8a-hexahydroindolizin-3-yl)-1H-imidazol-5-yl)-3-fluoropicolinic acid] | –
